Test results as given in DBAASP.
Converted amounts (≈) assume the structure as drawn. Blank lines part the entries; values can stand above or below the molecule they belong to.

Assays:
Assay in all cases: ≥ marks a high value that may be exact or a test limit, other limits are often not marked, values filed in µg/mL are converted to µM
Staphylococcus aureus = tested on: Staphylococcus aureus
Escherichia coli = tested on: Escherichia coli
Pseudomonas aeruginosa = tested on: Pseudomonas aeruginosa
Staphylococcus aureus MR = tested on: Staphylococcus aureus MR
[1] = tested on: Micrococcus luteus ATCC 9341
Salmonella typhimurium = tested on: Salmonella typhimurium
Micrococcus luteus = tested on: Micrococcus luteus
Shigella dysenteriae = tested on: Shigella dysenteriae
Bacillus subtilis = tested on: Bacillus subtilis
[2] = tested on: Staphylococcus epidermidis
Proteus mirabilis = tested on: Proteus mirabilis
Klebsiella pneumoniae = tested on: Klebsiella pneumoniae
[3] = tested on: Escherichia coli DH5alpha
[4] = tested on: Klebsiella pneumoniae ATCC 10031
[5] = tested on: Salmonella enterica subsp. enterica serovar Typhimurium ATCC 14028
[6] = tested on: Escherichia coli ATCC 25922
[7] = tested on: Candida albicans ATCC 2002
[8] = tested on: Staphylococcus aureus ATCC 2592
[9] = tested on: Pseudomonas aeruginosa ATCC 27853
[10] = tested on: Staphylococcus aureus ATCC 25923
[11] = tested on: Bacillus subtilis ATCC 6051
Bacillus cereus = tested on: Bacillus cereus
Escherichia coli JW0013 = tested on: Escherichia coli JW0013
Escherichia coli B = tested on: Escherichia coli B
Bacillus subtilis 168 = tested on: Bacillus subtilis 168

MIC (Staphylococcus aureus): 3.8 µM (≈ 4 µg/mL)
MIC (Escherichia coli): 5.7 µM (≈ 5.99 µg/mL)
MIC (Pseudomonas aeruginosa): 3.8 µM (≈ 4 µg/mL)
MIC (Staphylococcus aureus MR): ≥ 38 µM
SMILES: CC[C@H](C)[C@H](NC(=O)[C@H](C)NC(=O)[C@H](CC(C)C)NC(=O)[C@H](CC(C)C)NC(=O)[C@H](CC(C)C)NC(=O)[C@H](C)N)C(=O)N[C@@H](CCCN=C(N)N)C(=O)N[C@@H](CCCCN)C(=O)N[C@@H](CCCN=C(N)N)C(N)=O [ALLLAIRKR]

MIC [1]: 0.4 µM (≈ 0.746 µg/mL)
SMILES: CC(C)C[C@H](NC(=O)[C@H](C)N)C(=O)N1CCC[C@H]1C(=O)N[C@@H](Cc1c[nH]c2ccccc12)C(=O)N[C@@H](CCCCN)C(=O)N[C@@H](Cc1c[nH]c2ccccc12)C(=O)N1CCC[C@H]1C(=O)N[C@@H](Cc1c[nH]c2ccccc12)C(=O)N[C@@H](Cc1c[nH]c2ccccc12)C(=O)N1CCC[C@H]1C(=O)N[C@@H](Cc1c[nH]c2ccccc12)C(=O)N[C@@H](CCCN=C(N)N)C(=O)N[C@@H](CCCN=C(N)N)C(N)=O [ALPWKWPWWPWRR]

MIC (Salmonella typhimurium): ≥ 161 µM
MIC (Micrococcus luteus): ≥ 161 µM
MIC (Shigella dysenteriae): ≥ 161 µM
MIC (Bacillus subtilis): ≥ 161 µM
MIC (Staphylococcus aureus): > 161 µM
MIC [2]: ≥ 161 µM
MIC (Escherichia coli): > 161 µM
MIC (Pseudomonas aeruginosa): > 161 µM
MIC (Proteus mirabilis): ≥ 161 µM
MIC (Klebsiella pneumoniae): > 161 µM
SMILES: CC(C)C[C@H](NC(=O)[C@H](C)NC(=O)CNC(=O)[C@H](CC(C)C)NC(=O)[C@@H](N)Cc1ccccc1)C(=O)N[C@@H](Cc1ccccc1)C(=O)N[C@@H](CCCCN)C(=O)N[C@H](C(=O)N[C@@H](C)C(=O)N[C@@H](CO)C(=O)N[C@@H](Cc1c[nH]c2ccccc12)C(=O)O)C(C)C [FLGALFKVASW]

MIC [3]: ≥ 69.1 µM
MIC [4]: ≥ 34.5 µM
MIC [5]: > 69.1 µM
SMILES: CC(C)C[C@H](NC(=O)CNC(=O)[C@H](C)NC(=O)[C@H](CC(C)C)NC(=O)[C@H](CC(C)C)NC(=O)[C@H](CCCCN)NC(=O)[C@H](CC(C)C)NC(=O)[C@@H](N)Cc1ccccc1)C(=O)N[C@@H](CC(C)C)C(=O)N[C@@H](CCCCN)C(=O)N[C@@H](CC(N)=O)C(=O)N[C@@H](Cc1ccccc1)C(=O)N[C@@H](C)C(=O)O [FLKLLAGLLKNFA]

MIC [6]: 2.44 µM (≈ 6.5 µg/mL)
MIC [7]: 2.81 µM (≈ 7.49 µg/mL)
MIC (Shigella dysenteriae): 0.825 µM (≈ 2.2 µg/mL)
MIC [8]: 2.06 µM (≈ 5.5 µg/mL)
SMILES: CC[C@H](C)[C@@H]1NC(=O)[C@H](CCCCN)NC(=O)[C@@H](NC(=O)[C@H](Cc2ccccc2)NC(=O)[C@H](CC(C)C)NC(=O)[C@H](CCCCN)NC(=O)[C@@H]2CCCN2C(=O)[C@H](CC(C)C)NC(=O)[C@H](Cc2ccccc2)NC(=O)[C@H](CC(N)=O)NC(=O)[C@H](C)NC(=O)[C@H](C)NC(=O)[C@H](CC(C)C)NC(=O)[C@H](CO)NC(=O)[C@@H](NC(=O)[C@H](C)NC(=O)[C@H](CC(C)C)NC(=O)[C@@H]2CCCN2C(=O)[C@H](CC(C)C)NC(=O)[C@@H](N)Cc2ccccc2)C(C)C)CSSC[C@@H](C(=O)O)NC(=O)[C@H](CCCCN)NC(=O)[C@H](CCCCN)NC(=O)[C@H]([C@@H](C)O)NC1=O [FLPLAVSLAANFLPKLFCKITKKC]

MIC (Salmonella typhimurium): ≥ 153 µM
MIC (Micrococcus luteus): ≥ 38.2 µM
MIC (Shigella dysenteriae): ≥ 153 µM
MIC (Bacillus subtilis): 9.54 µM (≈ 12.5 µg/mL)
MIC (Staphylococcus aureus): 9.54 µM (≈ 12.5 µg/mL)
MIC [2]: 19.1 µM (≈ 25 µg/mL)
MIC (Escherichia coli): 76.4 µM (≈ 100 µg/mL)
MIC (Pseudomonas aeruginosa): > 153 µM
MIC (Proteus mirabilis): ≥ 153 µM
MIC (Klebsiella pneumoniae): 76.4 µM (≈ 100 µg/mL)
SMILES: CC(C)C[C@H](NC(=O)[C@H](C)NC(=O)[C@H](Cc1c[nH]c2ccccc12)NC(=O)[C@H](CC(C)C)NC(=O)[C@@H](N)Cc1ccccc1)C(=O)N[C@@H](Cc1ccccc1)C(=O)N[C@@H](CCCCN)C(=O)N[C@H](C(=O)N[C@@H](C)C(=O)N[C@@H](CO)C(=O)N[C@@H](CCCCN)C(=O)O)C(C)C [FLWALFKVASK]

MIC [9]: 20 µM (≈ 32 µg/mL)
MIC [6]: 40 µM (≈ 64 µg/mL)
MIC [10]: 160 µM (≈ 256 µg/mL)
MIC [11]: ≥ 40 µM
SMILES: CC[C@H](C)[C@H](NC(=O)[C@H](CC(N)=O)NC(=O)[C@H](Cc1ccccc1)NC(=O)[C@H](CC(C)C)NC(=O)CN)C(=O)N[C@H](C(=O)N[C@@H](CCCCN)C(=O)N[C@@H](CCCCN)C(=O)N[C@H](C(=O)N[C@H](C(=O)NCC(=O)N[C@@H](CCCCN)C(=O)N[C@@H](CC(C)C)C(=O)N[C@@H](CCCN=C(N)N)C(=O)O)[C@@H](C)CC)[C@@H](C)O)[C@@H](C)CC [GLFNIIKKTIGKLR]

MIC [6]: 16 µM (≈ 29.6 µg/mL)
MIC [1]: 0.4 µM (≈ 0.74 µg/mL)
SMILES: CC[C@H](C)[C@H](N)C(=O)N[C@@H](CC(C)C)C(=O)N1CCC[C@H]1C(=O)N[C@@H](Cc1c[nH]c2ccccc12)C(=O)N[C@@H](CCCCN)C(=O)N[C@@H](Cc1c[nH]c2ccccc12)C(=O)N1CCC[C@H]1C(=O)N[C@@H](Cc1c[nH]c2ccccc12)C(=O)N[C@@H](Cc1c[nH]c2ccccc12)C(=O)N1CCC[C@H]1C(=O)N[C@@H](Cc1c[nH]c2ccccc12)C(=O)N[C@@H](CCCCN)C(=O)N[C@@H](CCCCN)C(N)=O [ILPWKWPWWPWKK]

MIC [6]: 10.6 µM (≈ 25 µg/mL)
MIC (Bacillus cereus): 21.3 µM (≈ 49.9 µg/mL)
MIC [7]: ≥ 42.6 µM
MIC (Shigella dysenteriae): 5.32 µM (≈ 12.5 µg/mL)
MIC (Pseudomonas aeruginosa): 10.6 µM (≈ 25 µg/mL)
MIC [8]: 5.32 µM (≈ 12.5 µg/mL)
SMILES: CSCC[C@H](NC(=O)[C@H](CO)NC(=O)[C@H](Cc1ccc(O)cc1)NC(=O)[C@H](C)NC(=O)[C@@H](N)CCCCN)C(=O)N1CCC[C@H]1C(=O)N[C@@H](CCCN=C(N)N)C(=O)N[C@H]1CSSC[C@@H](C(=O)N[C@@H](Cc2c[nH]c3ccccc23)C(=O)N[C@@H](CC(C)C)C(N)=O)NC(=O)[C@H](CC(C)C)NC(=O)[C@H](C(C)C)NC(=O)[C@H](C)NC(=O)[C@H](CCCN=C(N)N)NC(=O)[C@H](Cc2ccccc2)NC(=O)[C@H](CC(C)C)NC(=O)[C@H](Cc2ccc(O)cc2)NC(=O)[C@H](CCCCN)NC1=O [KAYSMPRCKYLFRAVLCWL]

MIC (Escherichia coli JW0013): 0.975 µM (≈ 2.4 µg/mL)
SMILES: CC[C@H](C)[C@H](NC(=O)[C@H](CCCN=C(N)N)NC(=O)[C@H](CCCN=C(N)N)NC(=O)[C@@H]1CCCN1C(=O)[C@@H]1CCCN1C(=O)[C@H](CCCN=C(N)N)NC(=O)[C@@H]1CCCN1C(=O)[C@H](CCCN=C(N)N)NC(=O)[C@@H]1CCCN1C(=O)[C@H](CC(C)C)NC(=O)[C@H](Cc1ccc(O)cc1)NC(=O)[C@H](Cc1cnc[nH]1)NC(=O)[C@H](CCCCN)NC(=O)[C@H](CCCCN)NC(=O)[C@H](CC(=O)O)NC(=O)[C@@H](N)C(C)C)C(=O)N[C@@H](Cc1ccc(O)cc1)C(=O)N[C@@H](CC(N)=O)C(=O)N[C@@H](CCCN=C(N)N)C(N)=O [VDKKHYLPRPRPPRRIYNR]

MIC (Escherichia coli JW0013): 1.36 µM (≈ 3.3 µg/mL)
SMILES: CC[C@H](C)[C@H](NC(=O)[C@H](CCCN=C(N)N)NC(=O)[C@H](CCCN=C(N)N)NC(=O)[C@@H]1CCCN1C(=O)[C@@H]1CCCN1C(=O)[C@H](CCCN=C(N)N)NC(=O)[C@@H]1CCCN1C(=O)[C@H](CCCN=C(N)N)NC(=O)[C@@H]1CCCN1C(=O)[C@H](CCCCN)NC(=O)[C@H](CCCN=C(N)N)NC(=O)[C@@H]1CCCN1C(=O)[C@H](CCCCN)NC(=O)[C@H](CCCCN)NC(=O)[C@H](CC(=O)O)NC(=O)[C@@H](N)C(C)C)C(=O)N[C@@H](Cc1ccc(O)cc1)C(=O)N[C@@H](CC(N)=O)C(=O)N[C@@H](CCCN=C(N)N)C(N)=O [VDKKPRKPRPRPPRRIYNR]

MIC (Escherichia coli B): 0.7 µM (≈ 1.22 µg/mL)
MIC (Staphylococcus aureus): 7.2 µM (≈ 12.5 µg/mL)
MIC (Bacillus subtilis 168): 0.6 µM (≈ 1.04 µg/mL)
MIC (Pseudomonas aeruginosa): 26.9 µM (≈ 46.7 µg/mL)
SMILES: CC[C@H](C)[C@H](NC(=O)[C@H](CCCCN)NC(=O)[C@H](C)NC(=O)[C@H](CC(C)C)NC(=O)[C@@H](NC(=O)[C@H](CCCCN)NC(=O)[C@H](CCCCN)NC(=O)[C@H](Cc1c[nH]c2ccccc12)NC(=O)[C@H](CC(N)=O)NC(=O)[C@@H](N)C(C)C)C(C)C)C(=O)N[C@H](C(=O)N[C@@H](CCCCN)C(=O)N[C@H](C(=O)N[C@@H](C)C(=O)N[C@@H](CCCCN)C(N)=O)C(C)C)[C@@H](C)CC [VNWKKVLAKIIKVAK]
